Test results from ChEMBL document CHEMBL1147101, “Development and persistence of antimicrobial resistance in Pseudomonas aeruginosa: a longitudinal observation in mechanically ventilated patients” (Antimicrob Agents Chemother, 2007).
Activity calls are given as the source filed them.

Legend:
Assay type in all cases: functional, organism-based
Conditions in all cases: Trachea
Pseudomonas aeruginosa [1] = assay: Antimicrobial activity against Pseudomonas aeruginosa 19E12 tracheal isolates from mechanically ventilated chronic respiratory insufficiency patient
Pseudomonas aeruginosa [2] = assay: Antimicrobial activity against Pseudomonas aeruginosa 13D6 tracheal isolates from mechanically ventilated chronic respiratory insufficiency patient
Pseudomonas aeruginosa [3] = assay: Antimicrobial activity against Pseudomonas aeruginosa 24E6 tracheal isolates from mechanically ventilated chronic respiratory insufficiency patient
Pseudomonas aeruginosa [4] = assay: Antimicrobial activity against Pseudomonas aeruginosa 65.33-3 tracheal isolates from mechanically ventilated tuberculosis patient
Pseudomonas aeruginosa [5] = assay: Antimicrobial activity against Pseudomonas aeruginosa 65.36-4 tracheal isolates from mechanically ventilated tuberculosis patient
Pseudomonas aeruginosa [6] = assay: Antimicrobial activity against Pseudomonas aeruginosa 19D9 tracheal isolates from mechanically ventilated chronic respiratory insufficiency patient
Pseudomonas aeruginosa [7] = assay: Antimicrobial activity against Pseudomonas aeruginosa 19F1 tracheal isolates from mechanically ventilated chronic respiratory insufficiency patient
Pseudomonas aeruginosa [8] = assay: Antimicrobial activity against Pseudomonas aeruginosa 19F2 tracheal isolates from mechanically ventilated chronic respiratory insufficiency patient
Pseudomonas aeruginosa [9] = assay: Antimicrobial activity against Pseudomonas aeruginosa 13D3 tracheal isolates from mechanically ventilated chronic respiratory insufficiency patient
Pseudomonas aeruginosa [10] = assay: Antimicrobial activity against Pseudomonas aeruginosa 23C5 tracheal isolates from mechanically ventilated chronic respiratory insufficiency patient
Pseudomonas aeruginosa [11] = assay: Antimicrobial activity against Pseudomonas aeruginosa 16D5 tracheal isolates from mechanically ventilated chronic respiratory insufficiency patient
Pseudomonas aeruginosa [12] = assay: Antimicrobial activity against Pseudomonas aeruginosa 19D10 tracheal isolates from mechanically ventilated chronic respiratory insufficiency patient
Pseudomonas aeruginosa [13] = assay: Antimicrobial activity against Pseudomonas aeruginosa 24E1 tracheal isolates from mechanically ventilated chronic respiratory insufficiency patient
Pseudomonas aeruginosa [14] = assay: Antimicrobial activity against Pseudomonas aeruginosa 29H1 tracheal isolates from mechanically ventilated chronic respiratory insufficiency patient
Pseudomonas aeruginosa [15] = assay: Antimicrobial activity against Pseudomonas aeruginosa 19C7 tracheal isolates from mechanically ventilated chronic respiratory insufficiency patient
Pseudomonas aeruginosa [16] = assay: Antimicrobial activity against Pseudomonas aeruginosa 65.36-3 tracheal isolates from mechanically ventilated tuberculosis patient
Pseudomonas aeruginosa [17] = assay: Antimicrobial activity against Pseudomonas aeruginosa 13E1 tracheal isolates from mechanically ventilated chronic respiratory insufficiency patient
Pseudomonas aeruginosa [18] = assay: Antimicrobial activity against Pseudomonas aeruginosa 15H5 tracheal isolates from mechanically ventilated chronic respiratory insufficiency patient
Pseudomonas aeruginosa [19] = assay: Antimicrobial activity against Pseudomonas aeruginosa 16D2 tracheal isolates from mechanically ventilated chronic respiratory insufficiency patient
Pseudomonas aeruginosa [20] = assay: Antimicrobial activity against Pseudomonas aeruginosa 15G10 tracheal isolates from mechanically ventilated chronic respiratory insufficiency patient
Pseudomonas aeruginosa [21] = assay: Antimicrobial activity against Pseudomonas aeruginosa 24D5 tracheal isolates from mechanically ventilated chronic respiratory insufficiency patient
Pseudomonas aeruginosa [22] = assay: Antimicrobial activity against Pseudomonas aeruginosa 19E1 tracheal isolates from mechanically ventilated chronic respiratory insufficiency patient
Pseudomonas aeruginosa [23] = assay: Antimicrobial activity against Pseudomonas aeruginosa 65.36-1 tracheal isolates from mechanically ventilated tuberculosis patient
Pseudomonas aeruginosa [24] = assay: Antimicrobial activity against Pseudomonas aeruginosa 19C12 tracheal isolates from mechanically ventilated chronic respiratory insufficiency patient
Pseudomonas aeruginosa [25] = assay: Antimicrobial activity against Pseudomonas aeruginosa 3E2 tracheal isolates from mechanically ventilated chronic respiratory insufficiency patient
Pseudomonas aeruginosa [26] = assay: Antimicrobial activity against Pseudomonas aeruginosa 19C2 tracheal isolates from mechanically ventilated chronic respiratory insufficiency patient
Pseudomonas aeruginosa [27] = assay: Antimicrobial activity against Pseudomonas aeruginosa 19E9 tracheal isolates from mechanically ventilated chronic respiratory insufficiency patient
Pseudomonas aeruginosa [28] = assay: Antimicrobial activity against Pseudomonas aeruginosa 65.38-4 tracheal isolates from mechanically ventilated tuberculosis patient
Pseudomonas aeruginosa [29] = assay: Antimicrobial activity against Pseudomonas aeruginosa 13D11 tracheal isolates from mechanically ventilated chronic respiratory insufficiency patient
Pseudomonas aeruginosa [30] = assay: Antimicrobial activity against Pseudomonas aeruginosa 65.38-2 tracheal isolates from mechanically ventilated tuberculosis patient
Pseudomonas aeruginosa [31] = assay: Antimicrobial activity against Pseudomonas aeruginosa 9B5 tracheal isolates from mechanically ventilated chronic respiratory insufficiency patient
Pseudomonas aeruginosa [32] = assay: Antimicrobial activity against Pseudomonas aeruginosa 29G7 tracheal isolates from mechanically ventilated chronic respiratory insufficiency patient
Pseudomonas aeruginosa [33] = assay: Antimicrobial activity against Pseudomonas aeruginosa 24E2 tracheal isolates from mechanically ventilated chronic respiratory insufficiency patient
Pseudomonas aeruginosa [34] = assay: Antimicrobial activity against Pseudomonas aeruginosa 19C5 tracheal isolates from mechanically ventilated chronic respiratory insufficiency patient
Pseudomonas aeruginosa [35] = assay: Antimicrobial activity against Pseudomonas aeruginosa 19B1 tracheal isolates from mechanically ventilated chronic respiratory insufficiency patient
Pseudomonas aeruginosa [36] = assay: Antimicrobial activity against Pseudomonas aeruginosa IA5 tracheal isolates from mechanically ventilated tuberculosis patient
Pseudomonas aeruginosa [37] = assay: Antimicrobial activity against Pseudomonas aeruginosa P21.23 tracheal isolates from mechanically ventilated tuberculosis patient
Pseudomonas aeruginosa [38] = assay: Antimicrobial activity against Pseudomonas aeruginosa P21.21 tracheal isolates from mechanically ventilated tuberculosis patient
Pseudomonas aeruginosa [39] = assay: Antimicrobial activity against Pseudomonas aeruginosa 2A1 tracheal isolates from mechanically ventilated tuberculosis patient
Pseudomonas aeruginosa [40] = assay: Antimicrobial activity against Pseudomonas aeruginosa 65.33-1 tracheal isolates from mechanically ventilated tuberculosis patient
Pseudomonas aeruginosa [41] = assay: Antimicrobial activity against Pseudomonas aeruginosa 24F4 tracheal isolates from mechanically ventilated chronic respiratory insufficiency patient
Pseudomonas aeruginosa [42] = assay: Antimicrobial activity against Pseudomonas aeruginosa 65.18-4 tracheal isolates from mechanically ventilated tuberculosis patient
Pseudomonas aeruginosa [43] = assay: Antimicrobial activity against Pseudomonas aeruginosa 24D1 tracheal isolates from mechanically ventilated chronic respiratory insufficiency patient

GENTAMICIN
inactive: Activity (Pseudomonas aeruginosa [4]) | Activity (Pseudomonas aeruginosa [5]) | Activity (Pseudomonas aeruginosa [16]) | Activity (Pseudomonas aeruginosa [23]) | Activity (Pseudomonas aeruginosa [28]) | Activity (Pseudomonas aeruginosa [30])
active: Activity (Pseudomonas aeruginosa [1]) | Activity (Pseudomonas aeruginosa [2]) | Activity (Pseudomonas aeruginosa [3]) | Activity (Pseudomonas aeruginosa [6]) | Antimicrobial activity (Pseudomonas aeruginosa [7]) | Activity (Pseudomonas aeruginosa [8]) | Activity (Pseudomonas aeruginosa [9]) | Activity (Pseudomonas aeruginosa [10]) | Activity (Pseudomonas aeruginosa [11]) | Activity (Pseudomonas aeruginosa [12]) | Activity (Pseudomonas aeruginosa [13]) | Activity (Pseudomonas aeruginosa [14]) | Activity (Pseudomonas aeruginosa [15]) | Activity (Pseudomonas aeruginosa [17]) | Activity (Pseudomonas aeruginosa [18]) | Activity (Pseudomonas aeruginosa [19]) | Activity (Pseudomonas aeruginosa [20]) | Activity (Pseudomonas aeruginosa [21]) | Activity (Pseudomonas aeruginosa [22]) | Activity (Pseudomonas aeruginosa [24]) | Activity (Pseudomonas aeruginosa [25]) | Activity (Pseudomonas aeruginosa [26]) | Activity (Pseudomonas aeruginosa [27]) | Activity (Pseudomonas aeruginosa [29]) | Activity (Pseudomonas aeruginosa [31]) | Activity (Pseudomonas aeruginosa [32]) | Activity (Pseudomonas aeruginosa [33]) | Activity (Pseudomonas aeruginosa [34]) | Activity (Pseudomonas aeruginosa [35])

NCC[C@H](O)C(=O)N[C@@H]1C[C@H](N)[C@@H](O[C@H]2O[C@H](CN)[C@@H](O)[C@H](O)[C@H]2O)[C@H](O)[C@H]1O[C@H]1O[C@H](CO)[C@@H](O)[C@H](N)[C@H]1O
inactive: Activity (Pseudomonas aeruginosa [4]) | Activity (Pseudomonas aeruginosa [5]) | Activity (Pseudomonas aeruginosa [16]) | Activity (Pseudomonas aeruginosa [28]) | Activity (Pseudomonas aeruginosa [30])
active: Activity (Pseudomonas aeruginosa [1]) | Activity (Pseudomonas aeruginosa [2]) | Activity (Pseudomonas aeruginosa [36]) | Activity (Pseudomonas aeruginosa [3]) | Activity (Pseudomonas aeruginosa [6]) | Antimicrobial activity (Pseudomonas aeruginosa [7]) | Activity (Pseudomonas aeruginosa [8]) | Activity (Pseudomonas aeruginosa [37]) | Activity (Pseudomonas aeruginosa [38]) | Activity (Pseudomonas aeruginosa [9]) | Activity (Pseudomonas aeruginosa [39]) | Activity (Pseudomonas aeruginosa [10]) | Activity (Pseudomonas aeruginosa [40]) | Activity (Pseudomonas aeruginosa [11]) | Activity (Pseudomonas aeruginosa [12]) | Activity (Pseudomonas aeruginosa [13]) | Activity (Pseudomonas aeruginosa [14]) | Activity (Pseudomonas aeruginosa [15]) | Activity (Pseudomonas aeruginosa [17]) | Activity (Pseudomonas aeruginosa [41]) | Activity (Pseudomonas aeruginosa [18]) | Activity (Pseudomonas aeruginosa [19]) | Activity (Pseudomonas aeruginosa [20]) | Activity (Pseudomonas aeruginosa [21]) | Activity (Pseudomonas aeruginosa [42]) | Activity (Pseudomonas aeruginosa [22]) | Activity (Pseudomonas aeruginosa [24]) | Activity (Pseudomonas aeruginosa [25]) | Activity (Pseudomonas aeruginosa [26]) | Activity (Pseudomonas aeruginosa [43]) | Activity (Pseudomonas aeruginosa [27]) | Activity (Pseudomonas aeruginosa [29]) | Activity (Pseudomonas aeruginosa [31]) | Activity (Pseudomonas aeruginosa [32]) | Activity (Pseudomonas aeruginosa [33]) | Activity (Pseudomonas aeruginosa [34]) | Activity (Pseudomonas aeruginosa [35])
